Earlier results, collected in US7771757B2, “Nasal irrigation solutions and methods of using same” (Himalayan International Institute of Yoga Science and …, priority 2002, dated 2010).

Assays:
common cold = conditions: variously administered forms; in many cases

Molecule	activity in vitro against the growth of organisms (streptococci)	activity in vitro against the growth of organisms (staphylococci)	activity in vitro against the growth of organisms (pneumococci)	reduction of the duration of common cold symptoms (common cold)
COc1ccc2cc3[n+](cc2c1OC)CCc1cc2c(cc1-3)OCO2 [berberine]	active	active	active	
zinc				by half
